Assay results as given in patent US6716829B2, “Aldosterone antagonist and cyclooxygenase-2 inhibitor combination therapy to prevent or treat inflammation-related cardiovascular disorders” (Pharmacia Corporation, priority 2000, dated 2004).
Values joined by “and” are separate entries in the source; they are usually repeats but may differ in a detail not shown here. Identical values can stand only once.

Assays:
[1] = Assay C: body weight, left and right ventricle weight, tibia length (myocardial hypertrophy); type: in vivo, Male Sprague-Dawley rats
Experimental: The procedure of Assay B was expanded upon in a further study. […] Myocardial tissue from animals in each treatment group was examined after 7, 14, or 30 days of treatment.
Male Sprague-Dawley rats, weighing 230 to 250 g, (Harlan Sprague-Dawley Industries, Indianapolis, IN) were housed in a room 12-hours light/12-hours dark daily cycle at an ambient temperature of 22±1° C. (n=96). Animals were allowed one week to adjust after arrival and had free access to TEKLAD 22/5 rodent diet (Harlan TEKLAD, Madison, Wis.) and tap water until the initiation of the experiment.
Potassium chloride supplementation was added to the saline solution in order to prevent the potential hypokalemia associated with aldosterone excess.
At the time of the surgery, an Alzet 2002 osmotic minipump (Alza Corp., Palo Alto, Calif.) containing either vehicle (9% ethanol/87% propylene glycol/4% dH2O) or 1.0 mg/mL d-aldosterone (Sigma Chemical, St. Louis, Mo.) was inserted subcutaneously at the nape of the neck. Aldosterone was administered at a dose of 0.75 µg/hour. […] Animals were sacrificed from each group (n=8-13) after 7, 14, or 30 days of treatment.
Animals to be sacrificed after 7 or 14 days of treatment were uninephrectomized and implanted with an Alzet minipump. Animals treated for 30 days were uninephrectomized, fitted for Alzet minipumps, and implanted with radio telemetry units (model #TA11PA-C40, Data Sciences Inc., St. Paul, Minn.) according to the following procedure. Animals were anesthetized with 5% isoflurane (SOLVAY Animal Health Inc., Mendota Heights, Minn.), which was delivered in O2 using a VMS anesthesia instrument (Matrix Medical, Inc., Orchard Park, N.Y.). Anesthesia was maintained with 1-2% isoflurane throughout the surgical procedure. The surgery site was clipped, scrubbed with nolvasan, and sprayed with betadine. A rostral-caudal incision was made through the skin from the base of the rib cage to the pubic region using a #11 scalpel blade. A second incision was made through the muscles of the abdominal wall to expose the peritoneal cavity. The […], renal artery and vein of the left kidney were isolated, tied off with 4-0 silk, and the kidney excised and discarded. Organs were carefully displaced with tissue retractors in order to expose the abdominal aorta. A 1.5 cm segment just rostral to the bifurcation of the abdominal aorta into the iliac arteries was cleared of excessive connective tissue and 4-0 silk was used to make an anchor adjacent to the aorta. A microvascular clip was then placed at both ends of the cleaned region to stop excessive blood flow. Using a bent, 21 gauge needle, the abdominal aorta was penetrated. The cannula of the radio telemetry unit was inserted and stabilized in the aorta using the 4-0 silk anchor. Organs were repositioned and the telemetry unit was placed over the organs. Using a non-interrupted suture pattern with 4-0 silk, the abdominal wall was closed, and the skin was subsequently closed using a 4-0 silk in an interrupted suture pattern. Animals were injected around the sutures with 100 μL of the anesthetic Marcaine HCl (Sanofi Winthrop Pharmaceuticals, New York, N.Y.) and given an injection (i.m.) of the antibiotic Mandol (Eli Lilly & Co., Indianapolis, Ind.). Post-operative care included monitoring the animals on a heating pad during recovery from anesthesia until sternal recumbency was reestablished. Animals were monitored daily for signs of distress and infection at the surgical site. Animals displaying continued discomfort after surgery were treated with 0.1-0.5 mg/kg, s.c. Buphrenorphine (Rickett & Colman Pharmaceuticals, Inc. Richmond, Va.). Animals were then placed on tap water and TEKLAD 22/5 rodent diet (Harlan TEKLAD, Madison, Wis.).

myocardial injury = test: Assay C: histopathologic analysis, semi-quantitative myocardial injury score 0 to 4; type: in vivo, Male Sprague-Dawley rats; conditions: for Myocardia 1 Necrosis (0-4): eplerenone dose 100 mg/kg/day
Experimental: The procedure of Assay B was expanded upon in a further study. […] Myocardial tissue from animals in each treatment group was examined after 7, 14, or 30 days of treatment. […] Lesions were preceded by the expression and progressive upregulation of proinflammatory molecules. […] Prior to surgery the animals were individually weighed and placed in one of the following groups: […] Potassium chloride supplementation was added to the saline solution in order to prevent the potential hypokalemia associated with aldosterone excess. […] Louis, Mo.) was inserted subcutaneously at the nape of the neck. Aldosterone was administered at a dose of 0.75 µg/hour. […] Animals were sacrificed from each group (n=8-13) after 7, 14, or 30 days of treatment. Following exsanguination, hearts and kidneys were isolated, removed, rinsed in cold phosphate-buffered saline, and blotted dry. […] The equatorial regions of the heart were routinely processed into paraffin with an automated tissue processor (Hypercenter XP, Shandon/Lipshaw Inc., Pittsburgh, Pa.) and embedded into fresh paraffin apical side down (Shandon Embedding Center, Shandon/Lipshaw Inc.). Five and 10 µm sections were cut from each block of tissue using a Leica RM2035 rotary microtome (Leica Inc., Houston, Tex.) and mounted on Superfrost/Plus microscope slides (Fisher Scientific, Pittsburgh, Pa.). Ten […]m sections were stained with the collagen specific stain, Picrosirius Red F3BA (Saturated Picric Acid (Sigma Chemical, St. […] Waterbury, Conn.) (6). Mounted tissues were hydrated with water. […] Slides were coverslipped with #1 cover glass using Permount Histological Mounting Media (Fisher Scientific). Two slides mounted with 5 µm sections were cut for each animal. One slide was processed for H&E staining and one for Periodic Acid Schiff (PAS) staining. The H&E and PAS were used for pathological scoring of the hearts. Semi-quantification of myocardial injury was performed as described previously with minor modifications (7). Briefly, a scale from 0 to 4 was used to score the level of myocardial injury. A score of 0 represented no damage. […] Myocardial necrosis was defined as the presence of necrotic changes in cardiomyocytes such as nuclear pyknosis or karyolysis, non-contracting marginal wavy fibers and hypereosinophilia of the cytoplasm, or clear evidence of destruction of the cardiomyocyte membrane.

[2] = 14-day protocol, individual rats and group Mean, listed as Eplerenone + aldosterone + salt
[3] = 14-day protocol, individual rats and group Mean, listed as Eplerenone + aldosterone + salt, mean
[4] = individual rats and group mean, 7 days of treatment, aldosterone + salt, eplerenone 100 mg/kg/day
[5] = individual rats and group mean, 7 days of treatment, aldosterone + salt, eplerenone 100 mg/kg/day, group mean
[6] = mean ± SEM after 7 days of treatment, aldosterone + salt, eplerenone 100 mg/kg/day
[7] = mean ± SEM after 14 days of treatment, aldosterone + salt, eplerenone 100 mg/kg/day
[8] = mean ± SEM after 30 days of treatment, eplerenone dose 100 mg/kg/day

In the case of `COC(=O)[C@@H]1CC2=CC(=O)CC[C@]2(C)[C@@]23O[C@@H]2C[C@@]2(C)[C@@H](CC[C@@]24CCC(=O)O4)[C@H]13` [Eplerenone], the “Left Ventricle Weight” value [1, 2] is reported as 804 mg and 898 mg and 789 mg and 851 mg and 668 mg and 833 mg and 886 mg and 756 mg and 751 mg and 795 mg and 915 mg, the “Left Ventricle Weight/ Tibia Length” value [1, 2] is reported as 212 mg/cm and 236 mg/cm and 221 mg/cm and 176 mg/cm and 225 mg/cm and 233 mg/cm and 199 mg/cm and 198 mg/cm and 215 mg/cm and 235 mg/cm and the “Right Ventricle Weight” value [1, 2] is reported as 182 mg and 188 mg (2×) and 176 mg and 189 mg and 139 mg and 371 mg and 193 mg and 158 mg and 155 mg and 225 mg. The “Right Ventricle Weight/ Tibia Length” value [1, 2] was 48 mg/cm and 49 mg/cm (3×) and 46 mg/cm and 37 mg/cm and 100 mg/cm and 51 mg/cm and 42 mg/cm (2×) and 58 mg/cm, the “Left Ventricle Weight” value [1, 3] was 813 mg and the “Left Ventricle Weight/ Tibia Length” value [1, 3] was 214 mg/cm. For the same compound, the “Right Ventricle Weight” value [1, 3] was 197 mg, the “Right Ventricle Weight/ Tibia Length” value [1, 3] was 52 mg/cm and the Body weight ([1]; aldosterone + salt at days 7, 14 and 30 vs vehicle + salt, eplerenone effect at day 30) was “significantly attenuated”. For the same compound, the “Ventricular hypertrophy (absolute ventricular weights, ventricular weight to tibia length ratios)” value ([1]; aldosterone + salt, 7 to 30 days, eplerenone 100 mg/kg/day) was “did not impact”, the “Left Ventricle Weight” value [1, 4] was 859 mg and 712 mg and 618 mg and 658 mg and 754 mg and 733 mg and 726 mg and 696 mg and 700 mg and 688 mg and the “Left Ventricle Weight/ Tibia Length” value [1, 4] was 220 mg/cm and 187 mg/cm and 167 mg/cm and 173 mg/cm and 198 mg/cm and 193 mg/cm and 191 mg/cm and 183 mg/cm and 184 mg/cm and 181 mg/cm. The “Right Ventricle Weight” value [1, 4] was 216 mg and 181 mg (2×) and 154 mg and 174 mg and 192 mg and 171 mg and 190 mg and 170 mg and 187 mg, the “Right Ventricle Weight/ Tibia Length” value [1, 4] was 55 mg/cm and 48 mg/cm (2×) and 42 mg/cm and 46 mg/cm and 51 mg/cm and 45 mg/cm (2×) and 50 mg/cm and 49 mg/cm and the “Left Ventricle Weight” value [1, 5] was 714 mg. The “Left Ventricle Weight/ Tibia Length” value [1, 5] was 188 mg/cm, the “Right Ventricle Weight” value [1, 5] was 182 mg and the “Right Ventricle Weight/ Tibia Length” value [1, 5] was 48 mg/cm. For the same compound, the “Final Body Weight” value [1, 6] was 287 ± 4 g, the “Left Ventricle Weight” value [1, 6] was 714 ± 20 mg and the Left Ventricle Weight/ Tibia Length [1, 6] was 188 ± 5 mg/cm. For the same compound, the “Right Ventricle Weight” value [1, 6] was 182 ± 5 mg, the Right Ventricle Weight/ Tibia Length [1, 6] was 48 ± 1 mg/cm and the “Final Body Weight” value [1, 7] was 283 ± 6 g. The “Left Ventricle Weight” value [1, 7] was 813 ± 22 mg, the Left Ventricle Weight/ Tibia Length [1, 7] was 214 ± 6 mg/cm and the “Right Ventricle Weight” value [1, 7] was 197 ± 19 mg. The Right Ventricle Weight/ Tibia Length [1, 7] was 52 ± 5 mg/cm, the “Final Body Weight (g)” value [1, 8] was 331 ± 7^# g and the “Left Ventricle Weight” value [1, 8] was 936 ± 34 mg. The Left Ventricle Weight/ Tibia Length [1, 8] was 240 ± 9 mg/cm, the “Right Ventricle Weight” value [1, 8] was 198 ± 6 mg and the Right Ventricle Weight/ Tibia Length [1, 8] was 51 ± 2 mg/cm. For the same compound, the “Myocardial Necrosis (0-4)” value (myocardial injury; 7-day protocol, score 0-4, individual rats and group Mean) was 0.0, the “Myocardial injury / vascular inflammatory damage (histopathology)” value (myocardial injury; aldosterone + salt, 7, 14, 30 days, eplerenone 100 mg/kg/day) was “markedly attenuated” and the “Myocardial Necrosis (0-4)” value (myocardial injury; group mean, data used for Table 15 (14 days of treatment)) was 0.5. The “Myocardial Necrosis (0-4)” value (myocardial injury; group mean, data used for Table 16 (30 days of treatment)) was 0.0, the “Myocardial Necrosis (0-4)” value (myocardial injury; individual rats, data used for Table 15 (14 days of treatment), incl. rat marked * excluded from statistics, listed as Eplerenone + aldosterone + salt) was 1.0 (3×) and 0.0 (7×) and 2.0 and the “Myocardial Necrosis (0-4)” value (myocardial injury; individual rats, data used for Table 16 (30 days of treatment), incl. rat marked * excluded from statistics) was 0.0. For the same compound, the “Myocardia 1 Necrosis (0-4)” value (myocardial injury; mean ± SEM after 7 days of treatment) was 0.0 ± 0.0, the “Myocardia 1 Necrosis (0-4)” value (myocardial injury; mean ± SEM after 14 days of treatment) was 0.5 ± 0.2 and the “Myocardia 1 Necrosis (0-4)” value (myocardial injury; mean ± SEM after 30 days of treatment) was 0.0 ± 0.0.
